Source: PubChem BioAssay (NCI)
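Cells were grown in 96-well plates and exposed to each compound for 48 hours at five concentrations; endpoints were interpolated linearly between bracketing concentrations, or set to the highest concentration if not reached. TGI: concentration producing complete growth inhibition.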

What was measured:
Assay in all cases: DTP human tumour cell line panel, 48 h
MDA-MB-231 breast = tested on: MDA-MB-231 breast
MALME-3M melanoma = tested on: MALME-3M melanoma
OVCAR-4 ovarian = tested on: OVCAR-4 ovarian
UACC-62 melanoma = tested on: UACC-62 melanoma
ACHN renal = tested on: ACHN renal
NCI-H522 lung = tested on: NCI-H522 lung
IGROV1 ovarian = tested on: IGROV1 ovarian
SK-MEL-5 melanoma = tested on: SK-MEL-5 melanoma

Row | Structure (SMILES) | TGI (MDA-MB-231 breast) [µM] | TGI (MALME-3M melanoma) [µM] | TGI (OVCAR-4 ovarian) [µM] | TGI (UACC-62 melanoma) [µM] | TGI (ACHN renal) [µM] | TGI (NCI-H522 lung) [µM] | TGI (IGROV1 ovarian) [µM] | TGI (SK-MEL-5 melanoma) [µM]
1 | CC1(C)OC(=O)C(C)(C)C(=O)O1 | > 100 | > 100 | > 100 | > 100 | > 100 | > 100 | > 100 | > 100
2 | C[C@@H](CC(O)C(O)C(C)(C)O)C1CCC23CC12CCC1[C@@]2(C)CCC(O)C(C)(C)C2CC(OC2OC(CO)C(O)C(O)C2O)[C@]13C (some centres undefined) | > 10 | > 10 | > 10 | > 10 | > 10 | > 10 | > 10 | > 10
3 | CC1=NN(c2nc(N)nc(NS(=O)(=O)c3cc(C)c(Cl)cc3S)n2)C(C)(C)C1 |  | > 10 | > 10 |  | > 10 | > 10 | > 10 | > 10
4 | CSc1nc(=S)[nH]c2c1c(C)nn2-c1ccccc1 | 64.9 | 41.5 | 40.9 | 35.3 | 57.5 | 65.4 |  | 27.8
5 | CSc1ncnc2c1cnn2Cc1cn(COCCO)nn1 | > 100 | > 100 | > 100 | > 100 | > 100 |  | > 100 | > 100
6 | COc1ccc(-n2c(CCC(=O)O)nc3c2C(=O)c2ccccc2C3=O)cc1 | > 100 |  | > 100 | > 100 | > 100 | > 100 |  | > 100
7 | CN(C)CCN(C)P12(Oc3ccccc3O1)Oc1c(Cl)c(Cl)c(Cl)c(Cl)c1O2 | > 100 | > 100 | > 100 | > 100 | > 100 |  | > 100 | > 100
8 | NS(=O)(=O)c1ccc(NC(=O)N/N=C/c2ccccc2O)cc1 | > 100 | > 100 | > 100 | > 100 | > 100 | > 100 | > 100 | > 100
9 | O=C1N=C2SC=C(NC(=S)Nc3ccccc3)N2NC12c1ccccc1-c1ccccc12 | > 10 | > 10 | > 10 | > 10 | > 10 | > 10 | > 10 | > 10
10 | FC(F)(F)c1ccccc1C1SCC2=Nc3ccccc3CN21 (centres undefined) | > 100 |  | 30.1 | 26.1 |  |  | 29.7 | 27.9
11 | O=C1N/C(=N\N=C\c2ccccc2)C(c2ccccc2)O1 (centres undefined) | > 100 | > 100 | > 100 | > 100 | > 100 | > 100 | > 100 | > 100
12 | COc1ccc(/C=c2\c(=O)[nH]c3nc4ccccc4c(=O)n23)cc1 | > 100 | > 100 | > 100 | > 100 | > 100 | > 100 | > 100 | > 100
13 | CO/C(N)=C(\C#N)N=Cc1ccc2ccccc2c1 | > 100 | > 100 |  | > 100 | > 100 | > 100 | > 100 | > 100
14 | Cn1c(=O)c2[nH]c(N=O)nc2n(C)c1=O | > 100 | > 100 | > 100 | > 100 |  | > 100 | > 100 | 
